The values that follow come from ChEMBL document CHEMBL1155229, “Physical binding pocket induction for affinity prediction” (J Med Chem, 2009).

In the first test the target is T1, 5-hydroxytryptamine receptor 1A (Homo sapiens, UniProt P08908).
T1 sequence (P08908 whole entry): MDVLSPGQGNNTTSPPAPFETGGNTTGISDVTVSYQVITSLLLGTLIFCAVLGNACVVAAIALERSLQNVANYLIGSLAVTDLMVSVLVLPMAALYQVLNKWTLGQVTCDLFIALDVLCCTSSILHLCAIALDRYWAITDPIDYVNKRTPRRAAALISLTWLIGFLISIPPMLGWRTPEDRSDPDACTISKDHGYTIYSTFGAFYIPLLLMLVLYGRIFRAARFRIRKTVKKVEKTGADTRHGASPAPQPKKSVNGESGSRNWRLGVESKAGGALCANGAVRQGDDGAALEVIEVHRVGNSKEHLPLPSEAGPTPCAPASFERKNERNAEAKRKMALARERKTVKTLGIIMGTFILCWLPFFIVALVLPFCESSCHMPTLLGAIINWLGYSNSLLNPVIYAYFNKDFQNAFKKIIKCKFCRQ
The experiment in a line: Binding affinity to 5HT1A receptor. The note with it: read-out: Kd.
With `Fc1ccc([C@@H]2CCNC[C@H]2COc2ccc3c(c2)OCO3)cc1` [PAROXETINE], the Kd stood at 30000 nM.

The same test, now with this note: read-out: pKd (converted).
Take `CCc1nn(CCCN2CCN(c3cccc(Cl)c3)CC2)c(=O)n1CCOc1ccccc1` [NEFAZODONE]: the Kd is 158 nM.

For `Cc1nc2ccccn2c(=O)c1CCN1CCC(C(=O)c2ccc(F)cc2)CC1` [PIRENPERONE], the Kd is 2510 nM.

Consider `COc1cccc2c1C[C@@H]1CCN(CC3CC3)[C@@H]1C2`, for which the Kd is 794 nM.

Turning to `CCCN(CCC)[C@H]1CCc2c(F)ccc(O)c2C1`, the Kd was 25.1 nM.

Regarding `CN(C)CCc1c[nH]c2ccc(O)cc12` [BUFOTENINE], the Kd was 3.16 nM.

For `Clc1cncc(N2CCNCC2)n1` [MK-212], the Kd is 794 nM.

Take `C=CCN1CC[C@H]2c3ccccc3CC[C@H]21`: the Kd was 1 nM.

As for `O=C(NCCN1CCOCC1)c1ccc(Cl)cc1` [MOCLOBEMIDE], the Kd was 5010 nM.

In the case of `CCCN1CC[C@H]2c3c(cccc3OC)CC[C@H]21`, the Kd is 0.2 nM.

As to `O=C1c2ccccc2S(=O)(=O)N1CCCCN1CCN(c2ncccn2)CC1` [IPSAPIRONE], the Kd is 3.98 nM.

With `C[C@H]1[C@H](c2ccccc2)OCCN1C` [PHENDIMETRAZINE], the Kd is 12600 nM.

`C=CCN1C[C@H]2c3c(O)cccc3CC[C@H]21`: the Kd is 0.316 nM.

Take `CCCN1CC[C@@H]2c3c(cccc3OC)CC[C@@H]21`: the Kd was 200 nM.

`Clc1cccc(N2CCNCC2)c1` [CHLOROPHENYLPIPERAZINE]: the Kd is 100 nM.

Consider `Fc1ccc([C@@H]2CCNC[C@H]2COc2ccc3c(c2)OCO3)cc1` [PAROXETINE], for which the Kd was 31600 nM.

In the case of `COc1ccccc1N1CCN(C[C@@H](C(=O)NC(C)(C)C)c2ccccc2)CC1`, the Kd is 1.26 nM.

As to `COc1cccc2c1C[C@H]1CCN(CC3CC3)[C@@H]1C2`, the Kd is 31.6 nM.

With `FC(F)(F)c1cccc(C2CNCCO2)c1` (stereo not given) [FLUMEXADOL], the Kd is 251 nM.

As to `CN1C[C@@H](NS(=O)(=O)N(C)C)C[C@@H]2c3cccc4c3c(cn4C)C[C@H]21` [MESULERGINE], the Kd was 158 nM.
